This passage reports IC50 results from patent US9115127B2 (AMGEN INC., priority 2010, dated 2015).

For this assay, the target named is T1, wild-type human ALK (cytoplasmic domain, amino acids 1058-1620, N-terminal GST fusion) (Homo sapiens, UniProt Q9UM73).
T1 construct: The cytoplasmic domain (amino acids 1058-1620) of wild-type human ALK; GST (N); made in house; host or cells: SF9 insect cells
T1 sequence (Q9UM73 1058-1620): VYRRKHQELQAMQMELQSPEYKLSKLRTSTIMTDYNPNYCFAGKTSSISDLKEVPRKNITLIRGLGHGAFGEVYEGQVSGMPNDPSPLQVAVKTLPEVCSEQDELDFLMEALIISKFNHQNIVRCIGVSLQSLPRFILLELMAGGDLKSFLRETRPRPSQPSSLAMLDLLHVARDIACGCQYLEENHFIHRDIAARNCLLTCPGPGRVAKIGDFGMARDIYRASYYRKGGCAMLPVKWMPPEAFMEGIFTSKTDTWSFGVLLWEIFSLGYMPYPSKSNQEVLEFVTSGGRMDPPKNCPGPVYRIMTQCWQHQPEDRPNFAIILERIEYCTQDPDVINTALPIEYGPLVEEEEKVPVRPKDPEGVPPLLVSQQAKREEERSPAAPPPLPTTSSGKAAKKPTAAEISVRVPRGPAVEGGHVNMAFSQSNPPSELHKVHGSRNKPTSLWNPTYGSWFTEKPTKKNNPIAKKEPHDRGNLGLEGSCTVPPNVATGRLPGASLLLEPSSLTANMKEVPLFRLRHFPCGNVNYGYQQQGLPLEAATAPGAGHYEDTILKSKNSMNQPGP
The experiment in a line: ALK Inhibition in Enzyme Assay (Lance TR-FRET kinase assay). The class given is biochemical. As for the experimental part: ALK Inhibition in Enzyme Assay
Kinase activity of the purified protein was assessed using a Lance® TR-FRET assay. […] The reaction was allowed to proceed for 90 minutes at room temperature and was then terminated with 20 mM EDTA in 50 mM Tris (pH 7.5), 100 mM NaCl, 0.05% BSA, and 0.1% Tween-20. Phosphorylation of the peptide substrate was detected using the Lance® detection reagents streptavidin-allophycocyanin (SA-APC) and Eu-W1024 anti-phosphotyrosine antibody (PT66) from Perkin Elmer Life Sciences (Waltham, Mass.). The plates were read on a RUBY star plate reader (BMG LABTECH, Cary, N.C.) with an excitation wavelength of 320 nm.
For orientation: In TR-FRET formats the signal depends on donor and acceptor labels being close together.
For `NC(=O)[C@H]1CC[C@H](n2/c(=N/C(=O)c3cc(F)cc(F)c3)[nH]c3cnc(OCCN4CCCCC4)cc32)CC1` [Example 247, (E)-N-(1-(trans-4-Carbamoylcyclohexyl)-6-(2-(piperidin-1-yl)ethoxy)-1H-imidazo[4,5-c]pyridin-2(3H)-ylidene)-3,5-difluorobenzamide], the IC50 (usually the midpoint of a concentration-inhibition curve) lay within 1 to 5 µM.
`Cc1n[nH]c([C@H]2CC[C@@H](n3/c(=N/C(=O)c4cccc(F)c4)[nH]c4ccc(CN5CCC(C(C)(C)O)CC5)cc43)CC2)n1` [Example 74, (E)-3-Fluoro-N-(6-((4-(2-hydroxypropan-2-yl)piperidin-1-yl)methyl)-1-(cis-4-(3-methyl-1H-1,2,4-triazol-5-yl)cyclohexyl)-1H-benzo[d]imidazol-2(3H)-ylidene)benzamide] returned an IC50 of under 0.05 µM.
Next, `CC(C)NC(=O)[C@H]1CC[C@@H](n2/c(=N/C(=O)c3cccnc3)[nH]c3cnc(OCCN4CCCCC4)cc32)CC1` [Example 96, (E)-N-(1-(cis-4-(Isopropylcarbamoyl)cyclohexyl)-6-(2-(piperidin-1-yl)ethoxy)-1H-imidazo[4,5-c]pyridin-2(3H)-ylidene)nicotinamide]: under 0.05 µM; `CC(C)(O)C1CCN(CCOc2cc3c(cn2)[nH]/c(=N\C(=O)c2cccc(F)c2)n3[C@H]2CC[C@@H](C(=O)N3CC(O)C3)CC2)CC1` [Example 81, (E)-3-Fluoro-N-(1-(cis-4-(3-hydroxyazetidine-1-carbonyl)cyclohexyl)-6-(2-(4-(2-hydroxypropan-2-yl)piperidin-1-yl)ethoxy)-1H-imidazo[4,5-c]pyridin-2(3H)-ylidene)benzamide]: 0.1 to 1 µM.
Turning to `CC(C)NC(=O)[C@H]1CC[C@@H](n2/c(=N/C(=O)c3ccc(F)c(C(F)(F)F)c3)[nH]c3cnc(OCCN4CCCCC4)cc32)CC1` [Example 114, (E)-4-Fluoro-N-(1-(cis-4-(isopropylcarbamoyl)cyclohexyl)-6-(2-(piperidin-1-yl)ethoxy)-1H-imidazo[4,5-c]pyridin-2(3H)-ylidene)-3-(trifluoromethyl)benzamide], the IC50 is 0.05 to 0.1 µM.
`CN1CCN(C(=O)[C@H]2CC[C@@H](n3/c(=N/C(=O)c4ccc(F)cc4)[nH]c4ccc(CN5CCOCC5)cc43)CC2)CC1` [Example 203, (E)-4-Fluoro-N-(1-(cis-4-(4-methylpiperazine-1-carbonyl)cyclohexyl)-6-(morpholinomethyl)-1H-benzo[d]imidazol-2(3H)-ylidene)benzamide]: the IC50 was in the range of 0.1 to 1 µM.
In turn, `COC(=O)[C@H]1CC[C@@H](n2/c(=N/C(=O)c3ccc(F)cc3)[nH]c3ccc(CO)cc32)CC1` [Example 2] showed an IC50 of under 0.05 µM.
In turn, `CC(C)NC(=O)[C@H]1CC[C@@H](n2/c(=N/C(=O)c3ccc(F)cc3)[nH]c3cnc(OC4CCN(CC(=O)OC(C)(C)C)CC4)cc32)CC1` [Example 167, tert-Butyl 2-(4-((E)-2-(4-fluorobenzoylimino)-1-(cis-4-(isopropylcarbamoyl)cyclohexyl)-2,3-dihydro-1H-imidazo[4,5-c]pyridin-6-yloxy)piperidin-1-yl)acetate] gave an IC50 of under 0.05 µM.
In turn, `CC(C)C(=O)N[C@H]1CC[C@@H](n2/c(=N/C(=O)c3cccc(F)c3)[nH]c3ccc(CN4CCC(C(C)(C)O)CC4)cc32)CC1` [Example 228, (E)-3-Fluoro-N-(6-((4-(2-hydroxypropan-2-yl)piperidin-1-yl)methyl)-1-(cis-4-isobutyramidocyclohexyl)-1H-benzo[d]imidazol-2(3H)-ylidene)benzamide] gave an IC50 of 0.1 to 1 µM.
Take `CC(C)S(=O)(=O)N1CCC(n2/c(=N/C(=O)c3ccccc3)[nH]c3cnc(OCCN4CCCCC4)cc32)CC1` [Example 69, (E)-N-(1-(1-(Isopropylsulfonyl)piperidin-4-yl)-6-(2-(piperidin-1-yl)ethoxy)-1H-imidazo[4,5-c]pyridin-2(3H)-ylidene)benzamide]: the IC50 lay in the range of 0.1 to 1 µM.
`CC(C)(O)C1CCN(Cc2ccc3[nH]/c(=N\C(=O)c4ccc(F)cc4)n([C@H]4CC[C@H](C(N)=O)CC4)c3c2)CC1` [Example 233, (E)-N-(1-(trans-4-Carbamoylcyclohexyl)-6-((4-(2-hydroxypropan-2-yl)piperidin-1-yl)methyl)-1H-benzo[d]imidazol-2(3H)-ylidene)-4-fluorobenzamide] yielded an IC50 of 0.05 to 0.1 µM.
`CC(C)NC(=O)[C@H]1CC[C@@H](n2/c(=N/C(=O)c3cc(F)cc(Cl)c3)[nH]c3cnc(OCCN4CCCCC4)cc32)CC1` [Example 115, (E)-3-Chloro-5-fluoro-N-(1-(cis-4-(isopropylcarbamoyl)cyclohexyl)-6-(2-(piperidin-1-yl)ethoxy)-1H-imidazo[4,5-c]pyridin-2 (3H)-ylidene)benzamide]: the IC50 is under 0.05 µM.
Regarding `CNC(=O)[C@H]1CC[C@@H](n2/c(=N/C(=O)c3ccc(F)cc3)[nH]c3ccc(CN4CCCCC4)cc32)CC1` [Example 15, (E)-N-(1-(cis-4-(Methylcarbamoyl)cyclohexyl)-6-(piperidin-1-ylmethyl)-1H-benzo[d]imidazol-2(3H)-ylidene)-4-fluorobenzamide], the IC50 was under 0.05 µM.
The result for `CC(C)NC(=O)[C@H]1CC[C@@H](n2/c(=N/C(=O)c3ccc(C#N)c(F)c3)[nH]c3cnc(OCCN4CCCCC4)cc32)CC1` [Example 103, (E)-4-Cyano-3-fluoro-N-(1-(cis-4-(isopropylcarbamoyl)cyclohexyl)-6-(2-(piperidin-1-yl)ethoxy)-1H-imidazo[4,5-c]pyridin-2(3H)-ylidene)benzamide] reads under 0.05 µM.
Regarding `C[C@H]1CN(C(=O)[C@H]2CC[C@@H](n3/c(=N/C(=O)c4ccccc4)[nH]c4cnc(OCCN5CCCCC5)cc43)CC2)CCN1` [Example 62], the IC50 was 0.05 to 0.1 µM.
For the molecule `CCOC(=O)[C@H]1CC[C@@H](n2/c(=N/C(=O)c3cccc(F)c3)[nH]c3cnc(OCCO)cc32)CC1` [Example 77, cis-Ethyl 4-((E)-2-(3-fluorobenzoylimino)-6-(2-hydroxyethoxy)-2,3-dihydro-1H-imidazo[4,5-c]pyridin-1-yl)cyclohexanecarboxylate], the IC50 is under 0.05 µM.
On to `CC(C)NC(=O)[C@H]1CC[C@@H](n2/c(=N/C(=O)c3ccc(F)cc3)[nH]c3ccc(Cn4cccn4)cc32)CC1` [Example 197, (E)-N-(6-((1H-Pyrazol-1-yl)methyl)-1-(cis-4-(isopropylcarbamoyl)cyclohexyl)-1H-benzo[d]imidazol-2(3H)-ylidene)-4-fluorobenzamide], for which the IC50 is under 0.05 µM.
`CC(C)NC(=O)[C@H]1CC[C@@H](n2/c(=N/C(=O)c3ccc(F)cc3)[nH]c3ccc(CN4CCC(CC(=O)O)CC4)cc32)CC1` [Example 48, 2-(1-(((E)-2-(4-Fluorobenzoylimino)-3-(cis-4-(isopropylcarbamoyl)cyclohexyl)-2,3-dihydro-1H-benzo[d]imidazol-5-yl)methyl)piperidin-4-yl)acetic acid]: the IC50 is under 0.05 µM.
The molecule `O=C(/N=c1\[nH]c2cnc(OCCN3CCCCC3)cc2n1[C@H]1CC[C@@H](C(=O)O)CC1)c1ccccc1` [Example 25, cis-4-((E)-2-(Benzoylimino)-6-(2-(piperidin-1-yl)ethoxy)-2,3-dihydro-1H-imidazo[4,5-c]pyridin-1-yl)cyclohexanecarboxylic acid] came in with an IC50 of 1 to 5 µM.
Take `COc1cc(C(=O)/N=c2\[nH]c3cnc(OCCN4CCCCC4)cc3n2[C@H]2CC[C@@H](C(=O)NC(C)C)CC2)ccc1F` [Example 113, (E)-4-Fluoro-N-(1-(cis-4-(isopropylcarbamoyl)cyclohexyl)-6-(2-(piperidin-1-yl)ethoxy)-1H-imidazo[4,5-c]pyridin-2(3H)-ylidene)-3-methoxybenzamide]: the IC50 was in the range of 0.1 to 1 µM.
Take `CC(C)C(=O)N[C@H]1CC[C@@H](n2/c(=N/C(=O)c3ccc(F)cc3)[nH]c3ccc(CN4CCC(C(C)(C)O)CC4)cc32)CC1` [Example 227, (E)-4-Fluoro-N-(6-((4-(2-hydroxypropan-2-yl)piperidin-1-yl)methyl)-1-(cis-4-isobutyramidocyclohexyl)-1H-benzo[d]imidazol-2(3H)-ylidene)benzamide]: the IC50 fell in the range of 0.05 to 0.1 µM.
Molecule `CC(C)NC(=O)[C@H]1CC[C@@H](n2/c(=N/C(=O)c3ccc(F)cc3)[nH]c3ccc(N4CCS(=O)(=O)CC4)cc32)CC1` [Example 239, (E)-4-Fluoro-N-(1-(cis-4-(isopropylcarbamoyl)cyclohexyl)-6-(thiomorpholine 1,1-dioxide)-1H-benzo[d]imidazol-2(3H)-ylidene)benzamide] returned an IC50 of under 0.05 µM.
In turn, `CC(C)NC(=O)[C@H]1CC[C@@H](n2/c(=N/C(=O)c3ccc(F)cc3)[nH]c3ccc(CN4CCN(CCO)CC4)cc32)CC1` [Example 173, (E)-4-Fluoro-N-(6-((4-(2-hydroxyethyl)piperazin-1-yl)methyl)-1-(cis-4-(isopropylcarbamoyl)cyclohexyl)-1H-benzo[d]imidazol-2(3H)-ylidene)benzamide] gave an IC50 of under 0.05 µM.
`CC(C)NC(=O)[C@H]1CC[C@@H](n2/c(=N/C(=O)N3CCCC3)[nH]c3cnc(OCCN4CCCCC4)cc32)CC1` [Example 134, (E)-N-(1-(cis-4-(Isopropylcarbamoyl)cyclohexyl)-6-(2-(piperidin-1-yl)ethoxy)-1H-imidazo[4,5-c]pyridin-2(3H)-ylidene)pyrrolidine-1-carboxamide] showed an IC50 of 0.05 to 0.1 µM.
Turning to `N#C[C@]1(c2cccc(Br)c2)C[C@@H](n2/c(=N/C(=O)c3ccc(F)cc3)[nH]c3cnc(OCCN4CCCCC4)cc32)C1` [Example 250, (E)-N-(1-(trans-3-(3-Bromophenyl)-3-cyanocyclobutyl)-6-(2-(piperidin-1-yl)ethoxy)-1H-imidazo[4,5-c]pyridin-2(3H)-ylidene)-4-fluorobenzamide], the IC50 fell in the range of 0.1 to 1 µM.
